This assay has as its target T1, RARα (Homo sapiens, UniProt P10276).
T1 sequence (P10276 182-417): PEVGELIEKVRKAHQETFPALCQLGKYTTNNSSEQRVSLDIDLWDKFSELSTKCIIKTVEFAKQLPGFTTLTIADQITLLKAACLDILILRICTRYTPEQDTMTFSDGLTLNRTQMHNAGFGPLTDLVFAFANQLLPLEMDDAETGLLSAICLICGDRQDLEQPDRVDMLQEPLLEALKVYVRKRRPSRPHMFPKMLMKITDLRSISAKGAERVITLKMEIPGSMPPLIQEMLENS
Briefly: Fluorescence competition binding assay (displacement of DC271). To be noted: for pKd: stated for the RARs (RARα and RARγ) together, read-out: K D, binding to the RARs. In a few lines:
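Recombinant RARα and RARγ LBDs (E. coli-expressed, His/NusA or His/SUMO tag removed by 3C cleavage, SEC-purified) were titrated with serially diluted retinoids displacing fluorescent retinoid DC271. Fluorescence change was fitted by nonlinear least-squares regression to give equilibrium dissociation constant KD.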

Structures are written as SMILES. pKd: −log10 of the molar value. Where only a bound is given, the exact number is not on record here.

For `CC1(C)CCC(C)(C)c2nc(C#Cc3ccc(C(=O)O)cc3F)cnc21` [Compound 31, 3-Fluoro-4-[2-(5,5,8,8-tetramethyl-5,6,7,8-tetrahydroquinoxalin-2-yl)ethynyl]benzoic Acid], the pKd was 6.00 to 7.00. Regarding `CC1(C)CCC(C)(C)c2nc(C#Cc3ccc(C(=O)O)cc3)cnc21` [Compound 30, 4-[2-(5,5,8,8-Tetramethyl-5,6,7,8-tetrahydroquinoxalin-2-yl)ethynyl]benzoic Acid], the pKd was 6.00 to 7.00. On to `Cc1sc(-c2ccc(C(=O)O)cc2)nc1-c1ccc2c(c1)C(C)(C)CCC2(C)C` [GZ25, reference compound], for which the pKd was 6.00 to 7.00. For the same compound, the “binding preference RARα versus RARγ (from K D)” value (log-log plot of K D for RARα and RARγ) is listed as “bind RARγ stronger than RARα”.

Regarding `COc1cc2c(cc1C#Cc1ccc(C(=O)O)cn1)C(C)(C)CCC2(C)C` [Compound 27, 6-[2-(3-Methoxy-5,5,8,8-tetramethyl-5,6,7,8-tetrahydronaphthalen-2-yl)ethynyl]pyridine-3-carboxylic Acid], the pKd was < 6.00. As for `Cc1sc(-c2ccc(C(=O)O)c(F)c2)nc1-c1cnc2c(n1)C(C)(C)CCC2(C)C` [Compound 42, 2-Fluoro-4-[5-methyl-4-(5,5,8,8-tetramethyl-5,6,7,8-tetrahydroquinoxalin-2-yl)-1,3-thiazol-2-yl]benzoic Acid], the pKd was 6.00 to 7.00. On to `Cc1cc2c(cc1C#Cc1ncc(C(=O)O)cn1)C(C)(C)CCC2(C)C` [Compound 28, 2-[2-(3,5,5,8,8-Pentamethyl-5,6,7,8-tetrahydronaphthalen-2-yl)ethynyl]pyrimidine-5-carboxylic Acid], for which the pKd was 6.00 to 7.00. With `Cc1sc(-c2ccc(C(=O)O)cc2F)nc1-c1cnc2c(n1)C(C)(C)CCC2(C)C` [Compound 43, 3-Fluoro-4-[5-methyl-4-(5,5,8,8-tetramethyl-5,6,7,8-tetrahydroquinoxalin-2-yl)-1,3-thiazol-2-yl]benzoic Acid], the pKd is < 6.00. Regarding `Cc1sc(-c2ccc(C(=O)O)cc2)nc1-c1cnc2c(n1)C(C)(C)CCC2(C)C` [Compound 40, 4-[5-Methyl-4-(5,5,8,8-tetramethyl-5,6,7,8-tetrahydroquinoxalin-2-yl)-1,3-thiazol-2-yl]benzoic Acid], the pKd was 6.00 to 7.00. Same read-out and setting: next, `COc1cc2c(cc1C#Cc1cc(F)c(C(=O)O)c(F)c1)C(C)(C)CCC2(C)C` [Compound 22, 2,6-Difluoro-4-[2-(3-methoxy-5,5,8,8-tetramethyl-5,6,7,8-tetrahydronaphthalen-2-yl)ethynyl]benzoic Acid]: 6.00 to 7.00.

The record behind these values is paper PMC12163635, “Synthetic Retinoids for the Modulation of Genomic and Nongenomic Processes in Neurodegenerative Diseases” (ACS Omega, 2025).
